Patent US20240197726A1, “NOVEL TETRAHYDROISOQUINOLINE ALKALOID COMPOUND CONTAINING MACROCYCLE” (THE UNIVERSITY OF TOKYO, priority 2021, published 2024)

How the values were obtained:
Assay type in all cases: cell-based
[1] = tested on: OVCAR-4 cancer cells; test: antitumor activity, sulforhodamine B cell growth assay, OVCAR-4; details: OVCAR-4, drug exposure 48 hours; read-out: GI50 value: 50% growth inhibitory concentration
Method: (§1) The THIQ compound containing a macrocyclic structure of the present invention was administered to various cancer cell lines, and the antitumor activity (Go value) was observed. Specifically, verification was performed according to the literature (Yamori, T.; Matsunaga, A.; Sato, S.; Yamazaki, K.; Komi, A.; Ishizu, K. et al. Cancer Res. 1999, 59, 4042) by the following procedure.
(§2) Cells were plated at an appropriate density in a 96-well plate in RPMI 1640 together with 5% fetal bovine serum, and adhered overnight. The cells were exposed to a drug for 48 hours. Then, according to the sulforhodamine B assay described by Skehan et al (Skehan P., Storeng R., Scudiero D., Monks A., McMahon J., Vistica D., Warren J. T., Bokesch H., Kenney S., Boyd M. R. J Natl. Cancer Inst, 1990, 82, 1107-1112), the cell growth rate was measured. The absorbance of the control well (C) and the test well (T) was measured at 525 nm. In addition, the time at which the drug was added was set as time 0, and the absorbance for the test well (T0) was measured. Using these measured values, the cell growth inhibitory effect (% growth=PG) was calculated by the following formula at each concentration of the drug.
(§3) (T<T0): PG=100×[(T−T0)/T]
(§4) The PG values determined above for each cell line were plotted against the concentration (logarithm) on a semi-logarithmic graph, and summarized for each visceral cancer. Concentrations at which the dose-response curve of each cell line crossed the horizontal line of PG=50%, 0%, or −50% were calculated. These concentrations were defined as Log GI50, Log TGI, and Log LC50. Actually, using two data points of the drug concentration before and after crossing each horizontal line, the drug concentration (logarithmic value) at the intersection of the straight line connecting the two points and the horizontal line for each PG was calculated.

[2] = tested on: OVCAR-3 cancer cells; test: antitumor activity, sulforhodamine B cell growth assay, OVCAR-3; details: OVCAR-3, drug exposure 48 hours; read-out: GI50 value: 50% growth inhibitory concentration
Method: as §1, §2, §3, §4

[3] = tested on: St-4 gastric cancer cells; test: antitumor activity, sulforhodamine B cell growth assay, St-4; details: St-4 (SI-4 in Tables 2-11), drug exposure 48 hours; read-out: GI50 value: 50% growth inhibitory concentration
Method: as §1, §2, §3, §4

[4] = tested on: LOX-IMVI melanoma cells; test: antitumor activity, sulforhodamine B cell growth assay, LOX-IMVI; details: LOX-IMVI, drug exposure 48 hours; read-out: GI50 value: 50% growth inhibitory concentration
Method: as §1, §2, §3, §4

[5] = tested on: MKN-B gastric cancer cells; test: antitumor activity, sulforhodamine B cell growth assay, MKN-B; details: MKN-B, drug exposure 48 hours; read-out: GI50 value: 50% growth inhibitory concentration
Method: as §1, §2, §3, §4

[6] = tested on: MKN-A gastric cancer cells; test: antitumor activity, sulforhodamine B cell growth assay, MKN-A; details: MKN-A, drug exposure 48 hours; read-out: GI50 value: 50% growth inhibitory concentration
Method: as §1, §2, §3, §4

[7] = tested on: NCI-H226 lung cancer cells; test: antitumor activity, sulforhodamine B cell growth assay, NCI-H226; details: NCI-H226, drug exposure 48 hours; read-out: GI50 value: 50% growth inhibitory concentration
Method: as §1, §2, §3, §4

[8] = tested on: various cancer cell lines; test: Verification of antitumor activity, whole panel of cancer cell lines; details: in words, compared with Cyanosafracin B
Method: as §1, §2, §3, §4

[9] = tested on: U251 central nervous system cancer cells; test: antitumor activity, sulforhodamine B cell growth assay, U251; details: U251, drug exposure 48 hours; read-out: GI50 value: 50% growth inhibitory concentration
Method: as §1, §2, §3, §4

[10] = tested on: HBC-5 breast cancer cells; test: antitumor activity, sulforhodamine B cell growth assay, HBC-5; details: HBC-5, drug exposure 48 hours; read-out: GI50 value: 50% growth inhibitory concentration
Method: as §1, §2, §3, §4

[11] = tested on: MKN1 gastric cancer cells; test: antitumor activity, sulforhodamine B cell growth assay, MKN1; details: MKN1, drug exposure 48 hours; read-out: GI50 value: 50% growth inhibitory concentration
Method: as §1, §2, §3, §4

[12] = tested on: KM-12 colorectal cancer cells; test: antitumor activity, sulforhodamine B cell growth assay, KM-12; details: KM-12, drug exposure 48 hours; read-out: GI50 value: 50% growth inhibitory concentration
Method: as §1, §2, §3, §4

[13] = tested on: HT-29 colorectal cancer cells; test: antitumor activity, sulforhodamine B cell growth assay, HT-29; details: HT-29, drug exposure 48 hours; read-out: GI50 value: 50% growth inhibitory concentration
Method: as §1, §2, §3, §4

[14] = tested on: HCT-15 colorectal cancer cells; test: antitumor activity, sulforhodamine B cell growth assay, HCT-15; details: HCT-15, drug exposure 48 hours; read-out: GI50 value: 50% growth inhibitory concentration
Method: as §1, §2, §3, §4

[15] = tested on: RXF-631L kidney cancer cells; test: antitumor activity, sulforhodamine B cell growth assay, RXF-631L; details: RXF-631L, drug exposure 48 hours; read-out: GI50 value: 50% growth inhibitory concentration
Method: as §1, §2, §3, §4

[16] = tested on: DMS273 lung cancer cells; test: antitumor activity, sulforhodamine B cell growth assay, DMS273; details: DMS273, drug exposure 48 hours; read-out: GI50 value: 50% growth inhibitory concentration
Method: as §1, §2, §3, §4

[17] = tested on: MCF-7 breast cancer cells; test: antitumor activity, sulforhodamine B cell growth assay, MCF-7; details: MCF-7, drug exposure 48 hours; read-out: GI50 value: 50% growth inhibitory concentration
Method: as §1, §2, §3, §4

[18] = tested on: SNB-75 central nervous system cancer cells; test: antitumor activity, sulforhodamine B cell growth assay, SNB-75; details: SNB-75, drug exposure 48 hours; read-out: GI50 value: 50% growth inhibitory concentration
Method: as §1, §2, §3, §4

[19] = tested on: OVCAR-8 cancer cells; test: antitumor activity, sulforhodamine B cell growth assay, OVCAR-8; details: OVCAR-8, drug exposure 48 hours; read-out: GI50 value: 50% growth inhibitory concentration
Method: as §1, §2, §3, §4

[20] = tested on: SK-OV-3 cancer cells; test: antitumor activity, sulforhodamine B cell growth assay, SK-OV-3; details: SK-OV-3, drug exposure 48 hours; read-out: GI50 value: 50% growth inhibitory concentration
Method: as §1, §2, §3, §4

[21] = tested on: MKN45 gastric cancer cells; test: antitumor activity, sulforhodamine B cell growth assay, MKN45; details: MKN45, drug exposure 48 hours; read-out: GI50 value: 50% growth inhibitory concentration
Method: as §1, §2, §3, §4

[22] = tested on: SNB-78 central nervous system cancer cells; test: antitumor activity, sulforhodamine B cell growth assay, SNB-78; details: SNB-78, drug exposure 48 hours; read-out: GI50 value: 50% growth inhibitory concentration
Method: as §1, §2, §3, §4

Compound	GI50 [1] [nM]	GI50 [2] [nM]	GI50 [3] [nM]	GI50 [4] [nM]	GI50 [5] [nM]	GI50 [6] [nM]	GI50 [7] [nM]	antitumor activity [8]	GI50 [9] [nM]	GI50 [10] [nM]	GI50 [11] [nM]	GI50 [12] [nM]	GI50 [13] [nM]	GI50 [14] [nM]	GI50 [15] [nM]	GI50 [16] [nM]	GI50 [17] [nM]	GI50 [18] [nM]	GI50 [19] [nM]	GI50 [20] [nM]	further results
C=C1/C=C/CN[C@@H](C)C(=O)NCC2c3c(c(c(C)c4c3OCO4)OC1)C[C@H]1[C@H]3c4c(cc(C)c(OC)c4O)C[C@@H]([C@H](C#N)N21)N3C [Compound 33]	400	70	270	31	220	330	260	better antitumor activity than Cyanosafracin B	55	40	68	110	86	400	300	140	26	96	180	500	GI50 [21]: 41 nM; GI50 [22]: 83 nM
COc1c(C)cc2c(c1O)C1C3Cc4c5c(C)c6c(c4C(CNC(=O)C(C)NCC=CCO5)N3C(C#N)C(C2)N1C)OCO6 (centres unmarked) [Compound 42]	55	15	37	< 10	25	36	30	better antitumor activity than Cyanosafracin B	13	17	18	19	13	47	34	16	< 10	< 10	34	49	GI50 [21]: 16 nM; GI50 [22]: 11 nM
